Results on twelve compounds are retold here after ChEMBL document CHEMBL5257032, “Therapeutic potential of coumarins as antiviral agents” (Eur J Med Chem, 2016).

In data set [1] the test system is Chikungunya virus. As to the kind of experiment: Antiviral activity against CHIKV. It is filed as functional, organism-based.
Data set [2] is described as follows: Selectivity index, ratio of CC50 for cytotoxicity against human Ava5 cells to EC50 for antiviral activity against HCV. Type of data set: toxicity, cell-based. The note with it: read-out: Ratio CC50/EC50.
A further data set relates to H9. As to the kind of experiment: Cytotoxicity against human H9 cells. It is filed as functional, cell-based.
In data set [3] the test system is Human immunodeficiency virus. Description: Antiviral activity against HIV infected in human H9 cells. It is filed as functional, organism-based. The conditions noted are these: Human immunodeficiency virus 1, H9; read-out: EC50.
Data set [4] can be described thus: Therapeutic index, ratio of IC50 for cytotoxicity against human H9 cells to EC50 for antiviral activity against HIV infected in H9 cells. The conditions noted are these: read-out: Ratio IC50/EC50. It is filed as toxicity, cell-based.
Data set [5] concerns Hepatitis C virus. As to the kind of experiment: Antiviral activity against HCV subtype 1b in Huh-5-2 cells. Type of data set: functional, organism-based, Hepacivirus hominis.
The test system of the next data set is Hepatitis B virus. As to the kind of experiment: Antiviral activity against HBV. Type of data set: functional, organism-based.
Data set [6] deals with Chikungunya virus. Description: Antiviral activity against CHIKV virus by CHIKV-Rluc assay. It is filed as functional, organism-based.
The subject of another data set is Semliki Forest virus. Description: Antiviral activity against SFV. It is filed as functional, organism-based.
The next data set has as its system Herpesviridae sp. Description: Antiviral activity against Kaposi's sarcoma-associated herpesvirus. Type of data set: functional, organism-based.
Data set [7] in a line: Inhibition of HIV1 integrase. More on the design: species or system Human immunodeficiency virus 1.
In data set [8] the test system is Human alphaherpesvirus 1. As to the kind of experiment: Antiviral activity against Herpes simplex virus 1 assessed as reduction in number of plaques at 0.12 mg/ml relative to control. Also noted: scale not given: the % may be the effect or the level left. It is filed as functional.
Data set [9] has as its system Human alphaherpesvirus 1. As to the kind of experiment: Antiviral activity against Herpes simplex virus 1. It is filed as functional, organism-based.
Data set [10] can be described thus: Cytotoxicity against African green monkey Vero cells. The note with it: chlorocebus sabaeus, read-out: CD50 (the source's name). Type of data set: toxicity, cell-based.
The test system of data set [11] is Human alphaherpesvirus 1. Description: Antiviral activity against Herpes simplex virus 1 assessed as inhibition rate at 10 ug/ml relative to control. It is filed as functional.
The subject of data set [12] is Human alphaherpesvirus 1. Description: Antiviral activity against Herpes simplex virus 1 assessed as inhibition rate at 5 ug/ml relative to control. It is filed as functional.
The test system of data set [13] is Human alphaherpesvirus 1. Description: Antiviral activity against Herpes simplex virus 1 assessed as inhibition rate at 2.5 ug/ml relative to control. Type of data set: functional.
In data set [14] the test system is Hepatitis C virus. Description: Antiviral activity against HCV assessed as inhibition of RNA replication. It is filed as functional, organism-based, Hepacivirus hominis.
For data set [15], the system named is Hepatitis C virus. Description: Antiviral activity against HCV assessed as inhibition of HCV RNA replication at 5.0 uM relative to control. Type of data set: functional, Hepacivirus hominis. Also noted: scale not given: the % may be the effect or the level left.
The test system of another data set is Human alphaherpesvirus 2. Description: Antiviral activity against Herpes simplex virus 2. It is filed as functional, organism-based.

In brackets after ≈: the same amount, converted by molar mass. A value given as a limit tells only on which side of the number the result lay.

In the case of `CCN(CC)c1ccc2cc(C(=O)c3ccsc3)c(=O)oc2c1`, the IC50 (usually the midpoint of a concentration-inhibition curve) in the data set on Chikungunya virus [1] was found to be 5.1 µM.
Regarding `COc1cc(NCc2cc3ccccc3oc2=O)cc(OC)c1OC`, the selectivity ratio in [2] was determined as 10.
`CC(C)=CCOc1c2occc2cc2ccc(=O)oc12` [PENTOSALEN]: the IC50 with H9 was over 100 µg/mL. Besides, the EC50 (in general, the concentration at which the effect is half-maximal) in data set [3] is under 0.1 µg/mL. Also, the selectivity ratio in data set [4] is over 1000.
In the data set on Hepatitis C virus [5], `O=c1oc2ccc(Br)cc2cc1CSc1ncc[nH]1` came in with an EC50 of 5.1 µM.
`COc1c(OC/C=C(\C)CCC=C(C)C)ccc2ccc(=O)oc12` [COLLININ]: in the data set with Hepatitis B virus, the IC50 came to 17.1 µg/mL (≈ 52.1 µM).
Regarding `CCN(CC)c1ccc2cc(-c3nc4ccccc4n3C)c(=O)oc2c1`, the IC50 in the data set with Chikungunya virus [6] is 6.4 µM; in the data set with Semliki Forest virus it was 0.4 µM.
The compound `C=CC(C)(C)c1cc2cc3c(cc2oc1=O)OC(C(C)(C)OC(C)=O)C3` (configuration not stated) [RUTAMARIN] returned an EC50 with Herpesviridae sp. of 1.62 µM.
For the compound `COc1ccc(-c2c3c4cc(OC)c(OS(=O)(=O)O)cc4oc(=O)c3n3ccc4cc(OC)c(OC)cc4c23)cc1O`, the half-inhibitory concentration (IC50) in [7] was determined as 16 µM.
With `O=C(COc1cc(=O)oc2ccccc12)NN1C(=O)CSC1c1ccc(Cl)cc1` (configuration not stated), in the data set on Human alphaherpesvirus 1 [8], the Activity was 30%. Besides, the MIC against Human alphaherpesvirus 1 [9] was 120 µg/mL (≈ 279 µM). Also, in data set [10], the CC50 was 20 µg/mL (≈ 46.4 µM).
For `CC(=O)O[C@@H]1CC[C@]2(C)[C@H](CC[C@](C)(O)[C@@H]2COc2ccc3ccc(=O)oc3c2)C1(C)C`, in the data set on Human alphaherpesvirus 1 [9], it took 38 µg/mL (≈ 85.9 µM) to reach a half-maximal effect (EC50). Also, the inhibition (commonly the change of the read-out against control, counted positive when it falls) at 10 µg/mL in the data set with Human alphaherpesvirus 1 [11] stood at 98%. Also, in the data set with Human alphaherpesvirus 1 [12], the inhibition at 5 µg/mL was found to be 80%. In the data set with Human alphaherpesvirus 1 [13], the inhibition at 2.5 µg/mL came to 65%.
As to `CC(=O)OC[C@H]1O[C@@H](n2c(SCc3cc4cc(Br)ccc4oc3=O)nc3ccccc32)[C@H](OC(C)=O)[C@@H](OC(C)=O)[C@@H]1OC(C)=O`, in the data set with Hepatitis C virus [14], the EC50 is 4.1 µM. The Activity in the data set on Hepatitis C virus [15] came out at 90%.
As for `COC1=CC(=O)c2cc(C)cc(-c3c(OC)cc(OC)c4ccc(=O)oc34)c2C1=O`, the 50% effective concentration (EC50) in the data set on Human alphaherpesvirus 1 [9] and in the data set on Human alphaherpesvirus 2 was 10 µg/mL (≈ 24.6 µM) in each case.
